Results: patent US20100273740A1 (priority 2004, published 2010)
Values after ≈ are worked out from the molar mass of the structure shown.

Experiments:
[1] = Cell viability of uninfected human foreskin fibroblast drug control wells; type: cell-based; details: uninfected human foreskin fibroblast cells; read-out: Cytotoxic Conc. (IC50) Cell Growth
[2] = tested on: Urbani strain of SARS CoV; assay: organism not typed; type: cell-based; details: Vero, read-out: Effective Conc. (EC50) Against SARS CoV
Vero cells = assay: cells; type: cell-based; details: Chlorocebus sabaeus, read-out: Inhibitory Conc. (IC50) Cell Growth
[3] = cited from earlier work
SARS = details: cited from earlier work
SARS-CoV = details: cited from earlier work

With `CCCCCCCCCCOC(CNC(=O)CCCCCCCCC)COP(=O)([O-])OCC[N+](C)(C)C` (stereo not shown) [NHCOC9H19 OC9H18CH3 PC, 3-decanamido-2-decyloxypropyl-1-phosphocholine] the IC50 [1] was 75 µg/mL (≈ 136 µM).
Work on `CCCCCCCCCCCC(=O)NCC(COP(=O)([O-])OCC[N+](C)(C)C)OCCCC` (stereo not shown) [NHCOC11H23 OC3H6CH3 PC, 3-dodecanamido-2-butyloxypropyl-1-phosphocholine] yielded an EC50 [2] of 3 µg/mL (≈ 6.06 µM) and an IC50 (Vero cells) of 40 µg/mL (≈ 80.9 µM).
For `NC(=O)c1ncn([C@@H]2O[C@H](CO)[C@@H](O)[C@H]2O)n1` [Ribavirin, 1-β-D-ribofuranosyl-1-1,2,4-triazole-3-carboxamide], the “Patients with serum amino transferase levels reduced to normal” value [3] is listed as 40%, the “Effect on viral serum levels” value ([3]; patients) is listed as “does not lower viral serum levels” and the “Benefit in SARS patients” value (SARS) is listed as “has not been observed to be of benefit”.
In the case of interferon beta, the “Activity in vitro against SARS-CoV” value (SARS-CoV) is given as “effective in vitro against SARS-CoV”.
